Values of other authors as cited in paper PMC6683083, “Lupin Peptide T9 (GQEQSHQDEGVIVR) Modulates the Mutant PCSK9^D374Y Pathway: in vitro Characterization of its Dual Hypocholesterolemic Behavior” (Nutrients, 2019).
Where two headings read alike, the source gives them in different places.

What was measured:
PCSK9 = conditions: cited from earlier work
From the text: It is important to observe that some natural PCSK9 mutations affect its affinity for the LDLR. In particular, the gain of function (GOF) mutant D374Y binds more avidly to the LDLR than the wild-type (WT) PCSK9. The consequence is an approximately tenfold increased capacity of reducing the LDLR protein level. Accordingly, subjects with this PCSK9^D374Y mutation have very high LDL-C levels and are at high risk of atherosclerosis. In light of these observations, PCSK9 is currently considered a new target for the treatment of hypercholesterolemia, and the development of novel PCSK9 inhibitor ... || In this panorama, lupin protein hydrolysates, obtained by treating the proteins with pepsin and trypsin, show synergistic hypocholesterolemic effects through the modulation of both HMGCoAR and PCSK9 targets. […] Furthermore, these lupin hydrolysates impair the protein–protein interaction (PPI) betwe ... || Taking into account all this information, it is possible to affirm that there is an interesting similarity between the hypocholesterolemic behaviors of T9 and P5.

HMGCoAR = target: T1, HMGCoAR (Homo sapiens, UniProt P04035); parameters: method as in 4 sources, ref [16],[18] = [16]; doi:10.1016/j.jff.2017.02.009; 16. Zanoni C. Aiello G. Arnoldi A. Lammi C. Investigations on the hypocholesterolaemic activity of LILPKHSDAD and LTFPGSAED, two peptides from lupin beta-conglutin: Focus on LDLR and PCSK9 pathways J || [18]; doi:10.1111/jfbc.12524; 18. Lammi C. Zanoni C. Arnoldi A. Aiello G. YDFYPSSTKDQQS (P3), a peptide from lupin protein, absorbed by Caco-2 cells, modulates cholesterol metabolism in HepG2 cells via SREBP-1 activation J. Food B ||| ref [19],[20],[21] = [19]; doi:10.1016/j.jff.2015.02.021; 19. Lammi C. Zanoni C. Arnoldi A. IAVPGEVA, IAVPTGVA, and LPYP, three peptides from soy glycinin, modulate cholesterol metabolism in HepG2 cells through the activation of the LDLR-SREBP2 pathway J. Fu || [20]; PMID 26310992; doi:10.1021/acs.jafc.5b03497; 20. Lammi C. Zanoni C. Vistoli G. Arnoldi A. Two Peptides from Soy β-Conglycinin Induce a Hypocholesterolemic Effect in HepG2 Cells by a Statin-Like Mechanism: Comparative in Vitro and in Silico Model || [21]; PMID 26580610; doi:10.3390/ijms161126029; 21. Lammi C. Zanoni C. Arnoldi A. Three Peptides from Soy Glycinin Modulate Glucose Metabolism in Human Hepatic HepG2 Cells Int. J. Mol. Sci. 2015 16 27362 27370 10.3390/ijms161126029 26580610 PMC4661 ||| ref [6] = [6]; PMID 25690031; doi:10.3390/ijms16024150; 6. Soares R.A. Mendonça S. De Castro L. Menezes A.C. Arêas J.A. Ívini Major Peptides from Amaranth (Amaranthus cruentus) Protein Inhibit HMG-CoA Reductase Activity Int. J. Mol. Sci. 2015 16 4150 4160 ||| ref [4],[16] = [4]; PMID 24972343; doi:10.1021/jf500795b; 4. Lammi C. Zanoni C. Scigliuolo G.M. D’Amato A. Arnoldi A. Lupin Peptides Lower Low-Density Lipoprotein (LDL) Cholesterol through an Up-regulation of the LDL Receptor/Sterol Regulatory Element Bindin || [16]; doi:10.1016/j.jff.2017.02.009; 16. Zanoni C. Aiello G. Arnoldi A. Lammi C. Investigations on the hypocholesterolaemic activity of LILPKHSDAD and LTFPGSAED, two peptides from lupin beta-conglutin: Focus on LDLR and PCSK9 pathways J; conditions: cited from earlier work
T1 construct: purchased Sigma (Sigma-Aldrich, St. Louis, MO, USA)
T1 sequence (P04035 426-888 limits assumed): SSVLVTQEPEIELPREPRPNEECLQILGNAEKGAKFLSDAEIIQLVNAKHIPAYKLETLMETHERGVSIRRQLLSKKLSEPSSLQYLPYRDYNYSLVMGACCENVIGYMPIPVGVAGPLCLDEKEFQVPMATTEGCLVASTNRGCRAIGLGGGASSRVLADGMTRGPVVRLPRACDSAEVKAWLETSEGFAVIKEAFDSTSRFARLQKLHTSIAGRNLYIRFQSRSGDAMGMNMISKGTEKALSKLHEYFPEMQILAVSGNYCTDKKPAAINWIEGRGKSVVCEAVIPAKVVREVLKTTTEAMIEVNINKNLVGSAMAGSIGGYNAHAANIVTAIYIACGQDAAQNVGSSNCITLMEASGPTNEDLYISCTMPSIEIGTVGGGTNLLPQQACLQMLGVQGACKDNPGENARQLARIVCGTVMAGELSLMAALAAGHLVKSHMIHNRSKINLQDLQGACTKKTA

LDLR in HepG2 cells = conditions: ref [16]; cited from earlier work
From the text: In this panorama, lupin protein hydrolysates, obtained by treating the proteins with pepsin and trypsin, show synergistic hypocholesterolemic effects through the modulation of both HMGCoAR and PCSK9 targets. […] Furthermore, these lupin hydrolysates impair the protein–protein interaction (PPI) betwe ... || Taking into account all this information, it is possible to affirm that there is an interesting similarity between the hypocholesterolemic behaviors of T9 and P5.

[1] = tested on: SREBP-2 transcription factor; conditions: ref [16]; cited from earlier work
From the text: (§1) Taking into account all this information, it is possible to affirm that there is an interesting similarity between the hypocholesterolemic behaviors of T9 and P5.

HMGCoAR protein levels = conditions: reference not given; presumably ref [16]; cited from earlier work
From the text: as §1

HNF-1α = conditions: ref [16]; cited from earlier work
From the text: as §1

[2] = tested on: LDL uptake by HepG2 cells; conditions: cited from earlier work
From the text: (§2) In this panorama, lupin protein hydrolysates, obtained by treating the proteins with pepsin and trypsin, show synergistic hypocholesterolemic effects through the modulation of both HMGCoAR and PCSK9 targets. […] In parallel, we have also predicted by in silico experiments that T9 had the potential capability of inhibiting the HMGCoAR activity.

[3] = tested on: PCSK9-LDLR protein–protein interaction; conditions: ref [15]; cited from earlier work
From the text: as §2

[4] = soybean glycinin peptides, ref [19],[20],[21], read-out: IC50, HMGCoAR activity
[5] = lupin β-conglutin peptides (pepsin), in vitro, ref [16],[18], read-out: IC50, HMGCoAR activity

**Q.** Which “PCSK9 pathway (in words)” value (PCSK9; ref [14]) does the source give for COc1ccc2cc3[n+](cc2c1OC)CCc1cc2c(cc1-3)OCO2 [berberine] here?
**A.** modulate the PCSK9 pathway

**Q.** With “IAVPGEVA [soybean peptide from glycinin hydrolysis]” as the compound, how does the IC50 (HMGCoAR; [4]) read?
**A.** 222 µM

**Q.** Which IC50 (HMGCoAR; [4]) does the source give for “IAVPTGVA [soybean peptide from glycinin hydrolysis]” here?
**A.** 247 µM

**Q.** What does the source list for “LILPKHSDAD [P5, absorbable peptide deriving from hydrolysis of lupin β-conglutin with pepsin]”?
**A.** IC50 (HMGCoAR; [5]): 147 µM; PCSK9-WT protein level (in words) (PCSK9; ref [16]): decrease of PCSK9-WT protein level; selectivity, PCSK9-WT pathway modulation (in words) (PCSK9; ref [16]): selective toward the PCSK9-WT pathway modulation; LDLR protein levels (in words) (LDLR in HepG2 cells): increase of the LDLR protein levels; SREBP-2 transcription factor activation (in words) [1]: augmentation of the SREBP-2 transcription factor activation; HMGCoAR protein levels (in words) (HMGCoAR protein levels): does not diminish the HMGCoAR protein levels; HNF-1α level (in words) (HNF-1α): decrease of HNF-1α; ability of HepG2 cells to clear / absorb extracellular LDL (in words) ([2]; HepG2 cells, ref [15]): increased ability of HepG2 cells to clear extracellular LDL; capacity of HepG2 cells to clear LDL (in words) ([2]; ref [16]): enhanced capacity of HepG2 cells to clear LDL from the extracellular space; effect on PPI between PCSK9 and LDLR (in words) [3]: able to affect the PPI between PCSK9 and the LDLR

**Q.** With “LPYP [soybean peptide from glycinin hydrolysis]” as the compound, how does the IC50 (HMGCoAR; [4]) read?
**A.** 300 µM

**Q.** For “LTFPGSAED [P7, absorbable peptide deriving from hydrolysis of lupin β-conglutin with pepsin]”, which IC50 (HMGCoAR; [5]) is on record?
**A.** 68.4 µM

**Q.** Which results are given for VGVL?
**A.** IC50 (HMGCoAR; amaranth peptide, ref [6], read-out: concentration inhibiting HMGCoAR by 50%): 51.9 µM; HMGCoAR inhibition (in words) (HMGCoAR; amaranth protein hydrolysis peptides, ref [6]): direct inhibition of the reductase activity

**Q.** Which IC50 (HMGCoAR; [5]) does the source give for “YDFYPSSTKDQQS [P3, absorbable peptide deriving from hydrolysis of lupin β-conglutin with pepsin]” here?
**A.** 70 µM

**Q.** With “YVVNPDNNEN [soybean peptide from β-conglycinin]” as the compound, how does the IC50 (HMGCoAR; soybean β-conglycinin peptides, ref [19],[20],[21], read-out: IC50, HMGCoAR activity) read?
**A.** 200 µM
